This data set can be described thus: Decomposition of Compound (I) in aqueous solutions. In kind it is physicochemical. The source says: The present application is directed to a pharmaceutical composition of Compound (I) suitable for parenteral administration. […] Applicant discovered a lyophilisate formulation comprising a sugar and Compound (I) to afford an amorphous lyophilisate suitable for intravenous administration.

The text below walks through data of patent US10682413B2, “Pharmaceutical forms of diazabicyclooctane derivatives and process for producing the same” (Fedora Pharmaceuticals Inc., priority 2017, dated 2020).

Consider `NCCONC(=O)[C@@H]1CC[C@@H]2CN1C(=O)N2OS(=O)(=O)O` [Compound (I), (2S, 5R)—N-(2-aminoethoxy)-7-oxo-6-(sulfooxy)-1,6-diazabicyclo[3.2.1]octane-2-carboxamide], for which the “stability in aqueous solutions” value is “undergoes decomposition and dimerization in aqueous solutions”.
